Experimental data as given in US10391108B2 (BioPharmX, Inc., priority 2015, dated 2019).

Test system: P. acnes ATCC 6919
Test: Minimum Inhibitory Concentration (MIC), broth microdilution
Type: cell-based
Settings: 37° C., 2 days, anaerobic, tested 0.0078 to 16 μg/mL
Protocol: The antimicrobial activity of minocycline was assessed by measuring the Minimum Inhibitory Concentration (MIC). MIC was also assessed for several other materials and combinations and relative MIC values were calculated as multiples of the minocycline MIC value. […] Test material was dissolved in water, diluted by two-fold serial titrations for a total of 11 concentrations. A 96-well plate was prepared by adding 196 μL of broth medium seeded with a strain of P. acnes ATCC 6919 bacteria. A 4 μL aliquot of a test substance dilution was added to each well to bring the total volume in each well to 200 μL. The test substance concentrations tested ranged from 0.0078 to 16 μg/mL. Plates were incubated at 37° C. for 2 days in anaerobic conditions. 96-well plates were read by a TECAN […] F50 ELISA microplate reader (Männedorf, Switzerland) in absorbance mode with a wavelength of 620 nm. Each well was evaluated for whether growth occurred or was inhibited. The lowest concentration for which growth was inhibited was recorded as the MIC. Each test substance was evaluated in duplicate.

`[Cl-].[Cl-].[Mg+2]` [Magnesium chloride, magnesium chloride] was tested, and the MIC value was “did not inhibit growth at any of the concentrations tested”.
